Like-named read-outs stand apart in the source and are kept apart here.
Experiments:
Male Sprague Dawley rats = assay: Chronic Constriction Injury (CCI)-Induced Model of Neuropathic Pain, Acetone-Induced Hypersensitivity; type: in vivo, rat; conditions: Rattus norvegicus, po, Na salt form; for inhibition in vivo at 30 mg/kg: 30 mg/kg p.o.; for inhibition in vivo at 10 mg/kg: 10 mg/kg p.o.
Description: Male Sprague Dawley rats (225-450 g; n=5-8/treatment) were used to evaluate the ability of selected compounds of the formula (I) to reverse CCI-induced cold hypersensitivity. Four loose ligatures of 4-0 chromic gut were surgically placed around the left sciatic nerve under inhalation anesthesia as described by Bennett et al (Bennett G J, Xie Y K. Pain 1988, 33(1): 87-107). Fourteen to 35 days following CCI surgery, subjects were placed in elevated observation chambers containing wire mesh floors and five applications of acetone (0.05 mL/application separated by approximately 5 minutes) were spritzed onto the plantar surface of the paw using a multidose syringe. An abrupt withdrawal or lifting of the paw was considered a positive response. The number of positive responses was recorded for each rat over the five trials. Following baseline withdrawal determinations, compounds of formula (I) are administered in an appropriate vehicle, such as hydroxypropyl-β-cyclodextrin (HP β CD), methylcellulose, Methocel, 10% Solutol, or H2O, or the like, by the appropriate route, i.p. or p.o. […] Results are presented as a percent inhibition of […], which was calculated for each subject as [1−(test compound withdrawals/pre-test withdrawals)]×100 and then averaged by treatment.

canine TRPM8 = canine TRPM8 (Canis lupus familiaris, UniProt Q1A7N1); assay: In Vitro Canine TRPM8 Functional Assay (Ca2+ fluorescence, icilin activation); type: cell-based; conditions: for IC50: read-out: IC50; for inhibition at 0.2 µM: read-out: % Inh @ 0.2
Summary of the method: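 Eight-point dose-response curves in quadruplicate gave EC50 or IC50 values from a Ca2+-sensitive dye assay in HEK293 cells stably carrying canine TRPM8. Icilin, dosed near its 80% maximal level, followed a 5 min compound exposure.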

[1] = 3 h, Water, pretreatment 3 hr, read-out: Percent Inhibition
[2] = HEK293 cells stably expressing canine TRPM8, icilin activation, eight-point dose-response
[3] = compound at 0.2 μM, canine TRPM8, icilin activation
[4] = 4 h, Water, pretreatment 4 hr, read-out: Percent Inhibition
[5] = 3 h, HPbCD, pretreatment 3 hr, read-out: Percent Inhibition
[6] = 0.2 μM compound, HEK293 cells stably expressing canine TRPM8, icilin activation
[7] = HEK293 cells stably expressing canine TRPM8, icilin activation, average of two or more determinations
[8] = compound at 0.5 μM, canine TRPM8, icilin activation

Sequence of canine TRPM8 (Q1A7N1 1-1104): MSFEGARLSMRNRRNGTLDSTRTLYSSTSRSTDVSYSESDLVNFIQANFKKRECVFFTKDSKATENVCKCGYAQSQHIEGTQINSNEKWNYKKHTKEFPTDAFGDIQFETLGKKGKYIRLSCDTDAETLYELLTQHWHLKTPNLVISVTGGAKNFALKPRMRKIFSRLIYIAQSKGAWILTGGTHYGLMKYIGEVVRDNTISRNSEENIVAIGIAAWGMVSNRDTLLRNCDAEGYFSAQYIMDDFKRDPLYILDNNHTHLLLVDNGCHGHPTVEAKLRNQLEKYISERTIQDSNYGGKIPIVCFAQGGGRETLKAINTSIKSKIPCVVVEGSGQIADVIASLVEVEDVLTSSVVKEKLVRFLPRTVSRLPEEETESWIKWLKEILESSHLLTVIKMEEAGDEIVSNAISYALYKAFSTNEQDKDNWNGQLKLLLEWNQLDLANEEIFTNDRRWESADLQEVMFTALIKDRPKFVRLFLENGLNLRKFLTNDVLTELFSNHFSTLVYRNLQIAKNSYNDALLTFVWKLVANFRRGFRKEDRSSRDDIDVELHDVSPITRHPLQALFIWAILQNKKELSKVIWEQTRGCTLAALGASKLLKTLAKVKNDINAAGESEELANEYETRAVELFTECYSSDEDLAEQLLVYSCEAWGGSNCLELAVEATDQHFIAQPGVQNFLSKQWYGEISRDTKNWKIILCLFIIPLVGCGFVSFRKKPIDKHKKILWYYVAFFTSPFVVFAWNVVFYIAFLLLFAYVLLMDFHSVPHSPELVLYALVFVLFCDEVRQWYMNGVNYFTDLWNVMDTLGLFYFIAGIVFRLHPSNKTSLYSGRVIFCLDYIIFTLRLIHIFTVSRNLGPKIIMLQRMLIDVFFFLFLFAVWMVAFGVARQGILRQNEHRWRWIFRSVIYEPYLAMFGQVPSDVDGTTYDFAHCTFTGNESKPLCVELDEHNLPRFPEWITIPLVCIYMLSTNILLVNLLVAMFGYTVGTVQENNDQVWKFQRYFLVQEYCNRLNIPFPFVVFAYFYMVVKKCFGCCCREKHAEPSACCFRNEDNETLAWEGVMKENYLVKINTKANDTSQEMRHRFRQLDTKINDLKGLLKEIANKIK

## O=C(O)c1ccc(S(=O)(=O)N(Cc2ccc(F)c(C(F)(F)F)c2)c2sc3ccccc3c2Br)cc1 [Compound 292, N-(3-Bromo-benzo[b]thiophen-2-yl)-N-(4-fluoro-3-trifluoromethyl-benzyl)-4-carboxy-benzenesulfonamide]
Male Sprague Dawley rats; 2 h, Water, pretreatment 2 hr, read-out: Percent Inhibition
  inhibition in vivo at 30 mg/kg: 60%
Male Sprague Dawley rats; 3 h, 3 mg/kg p.o., Water, pretreatment 3 hr, read-out: Percent Inhibition
  inhibition in vivo at 3 mg/kg: 7%
Male Sprague Dawley rats; [1]
  inhibition in vivo at 10 mg/kg: 16%
  inhibition in vivo at 30 mg/kg: 21%
Male Sprague Dawley rats; 3 h, 100 mg/kg p.o., Water, pretreatment 3 hr, read-out: Percent Inhibition
  inhibition in vivo at 100 mg/kg: 67%
Male Sprague Dawley rats; Water, pretreatment 3 hr
  ED50: 70 mg/kg
Canine TRPM8; [2]
  IC50: 0.8 nM
Canine TRPM8; [3]
  inhibition at 0.2 µM: 98%
Canine TRPM8; compound at 0.5 μM, canine TRPM8, icilin activation, read-out: % Inh @ 0.5
  inhibition at 0.5 µM: 100%

## O=C(O)c1ccc(S(=O)(=O)N(CCC2CC2)c2sc3ccccc3c2Br)cc1 [Compound 396, N-(3-Bromo-benzo[b]thiophen-2-yl)-N-(2-cyclopropylethyl)-4-carboxy-benzenesulfonamide]
Male Sprague Dawley rats; [4]
  inhibition in vivo at 30 mg/kg: 50%
Canine TRPM8; [2]
  IC50: 5 nM
Canine TRPM8; [3]
  inhibition at 0.2 µM: 101%

## Cc1c(N(Cc2ccc(F)cc2)S(=O)(=O)c2ccc(C(=O)O)cc2)sc2ccccc12 [Compound 487, N-(3-Methyl-benzo[b]thiophen-2-yl)-N-(4-fluoro-benzyl)-4-carboxy-benzenesulfonamide]
Male Sprague Dawley rats; [5]
  inhibition in vivo at 10 mg/kg: 43%
  inhibition in vivo at 30 mg/kg: 66%
Canine TRPM8; [2]
  IC50: 2 nM
Canine TRPM8; [3]
  inhibition at 0.2 µM: 101%

## Cc1c(N(Cc2ccc(F)c(F)c2)S(=O)(=O)c2ccc(C(=O)O)cc2)sc2ccccc12 [Compound 488, N-(3-Methyl-benzo[b]thiophen-2-yl)-N-(3,4-difluoro-benzyl)-4-carboxy-benzenesulfonamide]
Male Sprague Dawley rats; 2 h, HPbCD, pretreatment 2 hr, read-out: Percent Inhibition
  inhibition in vivo at 30 mg/kg: 43%
Canine TRPM8; [2]
  IC50: 1 nM
Canine TRPM8; [3]
  inhibition at 0.2 µM: 101%

## Cc1c(N(Cc2ccc(F)c(Cl)c2)S(=O)(=O)c2ccc(C(=O)O)cc2)sc2ccccc12 [Compound 489, N-(3-Methyl-benzo[b]thiophen-2-yl)-N-(4-fluoro-3-chloro-benzyl)-4-carboxy-benzenesulfonamide]
Male Sprague Dawley rats; [1]
  inhibition in vivo at 30 mg/kg: 86%
Male Sprague Dawley rats; [4]
  inhibition in vivo at 10 mg/kg: 13%
  inhibition in vivo at 30 mg/kg: 57%
Male Sprague Dawley rats; 4 h, 17.8 mg/kg p.o., Water, pretreatment 4 hr, read-out: Percent Inhibition
  inhibition in vivo at 17.8 mg/kg: 60%
Male Sprague Dawley rats; 4 h, 56 mg/kg p.o., Water, pretreatment 4 hr, read-out: Percent Inhibition
  inhibition in vivo at 56 mg/kg: 70%
Male Sprague Dawley rats; Water, pretreatment 4 hr
  ED50: 23 mg/kg
Canine TRPM8; [2]
  IC50: 0.6 nM
Canine TRPM8; [3]
  inhibition at 0.2 µM: 101%

## Cc1c(N(Cc2ccc(OC(F)F)cc2)S(=O)(=O)c2ccc(C(=O)O)cc2)sc2ccccc12 [Compound 490, N-(3-Methyl-benzo[b]thiophen-2-yl)-N-(4-difluoromethoxy-benzyl)-4-carboxy-benzenesulfonamide]
Male Sprague Dawley rats; 1 h, HPbCD, pretreatment 1 hr, read-out: Percent Inhibition
  inhibition in vivo at 30 mg/kg: 23%
Canine TRPM8; [2]
  IC50: 1 nM
Canine TRPM8; [3]
  inhibition at 0.2 µM: 101%

## Cc1c(N(Cc2ccc(C(F)(F)F)c(F)c2)S(=O)(=O)c2ccc(C(=O)O)cc2)sc2ccccc12 [Compound 497, N-(3-Methyl-benzo[b]thiophen-2-yl)-N-(3-fluoro-4-trifluoromethyl-benzyl)-4-carboxy-benzenesulfonamide]
Male Sprague Dawley rats; [4]
  inhibition in vivo at 30 mg/kg: 60%
Canine TRPM8; [2]
  IC50: 0.4 nM
Canine TRPM8; [3]
  inhibition at 0.2 µM: 101%

## Cc1c(N(Cc2ccc3c(c2)OC(F)(F)O3)S(=O)(=O)c2ccc(C(=O)O)cc2)sc2ccccc12 [Compound 524, N-(3-Methyl-benzo[b]thiophen-2-yl)-N—(C-(2,2-difluoro-benzo[1,3]dioxol-5-yl)-methyl)-4-carboxy-benzenesulfonamide]
Male Sprague Dawley rats; [5]
  inhibition in vivo at 30 mg/kg: 46%
Canine TRPM8; [3]
  inhibition at 0.2 µM: 102%

## Cc1c(N(Cc2ccccc2)S(=O)(=O)c2ccc(OCc3ccccc3)c(F)c2)sc2ccccc12 [Compound 846, N-(Benzyl)-4-benzyloxy-3-fluoro-N-(3-methyl-benzo[b]thiophen-2-yl)-benzenesulfonamide]
Canine TRPM8; [6]
  inhibition at 0.2 µM: 28%

## CCS(=O)(=O)N(Cc1ccnc(F)c1)c1cc2ccccc2s1 [Compound 847, N-(Benzo[b]thiophen-2-yl)-N-(2-fluoro-pyridin-4-ylmethyl)-ethane-sulfonamide]
Canine TRPM8; [6]
  inhibition at 0.2 µM: 33%

## CCS(=O)(=O)N(Cc1ccnc(F)c1)c1sc2ccccc2c1C(C)=O [Compound 848, N-(3-Acetyl-benzo[b]thiophen-2-yl)-N-(2-fluoro-pyridin-4-ylmethyl)-ethansulfonamide]
Canine TRPM8; [6]
  inhibition at 0.2 µM: 68%

## CCCCNS(=O)(=O)N(CCCC)c1sc2ccccc2c1Br [Compound 849, N-(3-Bromo-benzo[b]thiophen-2-yl)-N,N′-bis-butyl-sulfamide]
Canine TRPM8; [6]
  inhibition at 0.2 µM: 25%

## CCCCNS(=O)(=O)N(CCCC)c1cc2ccccc2s1 [Compound 850, N-Benzo[b]thiophen-2-yl-N,N′-bis-butyl-sulfamide]
Canine TRPM8; [6]
  inhibition at 0.2 µM: 28%

## O=C(Nc1ccc(S(=O)(=O)N(CCC2CC2)c2sc3ccccc3c2Cl)cc1)C(F)(F)F [Cpd 694, N-(3-Chloro-benzo[b]thiophen-2-yl)-N-(2-cyclopropyl-ethyl)-4-trifluoroacetamido-benzenesulfonamide]
Canine TRPM8; [3]
  inhibition at 0.2 µM: 42%

## O=S(=O)(c1ccccc1)N(CCCF)c1sc2ccccc2c1CO [Cpd 820]
Canine TRPM8; [6]
  % Inh @ 0.2 (μM): 102%
Canine TRPM8; [7]
  IC50: 28 nM

## N-(3,4-Difluoro-benzyl)-N-thieno[3,2-b]pyridin-2-yl-benzenesulfonamide [Compound 146]
Canine TRPM8; [2]
  IC50: 48 nM
Canine TRPM8; [8]
  % Inh @ 0.5 (μM): 97%

## N-(3-Bromo-thieno[3,2-b]pyridin-2-yl)-N-(3,4-difluoro-benzyl)-benzenesulfonamide and N-(3-chloro-thieno[3,2-b]pyridin-2-yl)-N-(3,4-difluoro-benzyl)-benzenesulfonamide [Compound 145]
Canine TRPM8; [2]
  IC50: 14.1 nM
Canine TRPM8; [8]
  % Inh @ 0.5 (μM): 100%

## N-(3-Chloro-benzo[b]thiophen-2-yl)-N-(4,4,4-trifluoro-butyl)-4-(5-oxo-4,5-dihydro-[1,2,4]oxadiazol-3-yl)-benzenesulfonamide [Compound 515]
Canine TRPM8; [3]
  % Inh @ 0.2 (μM): 49%

## N-(3-Cyclopentyl-benzo[b]thiophen-2-yl)-N-(4-fluoro-3-trifluoromethyl-benzyl)-4-carbomethoxy-benzenesulfonamide [Compound 501]
Canine TRPM8; [3]
  % Inh @ 0.2 (μM): 31%

## N-(3-Methyl-benzo[b]thiophen-2-yl)-N-(4-fluoro-3-trifluoromethyl-benzyl)-4-pyrazol-1-yl-benzenesulfonamide [Compound 332]
Canine TRPM8; [2]
  IC50: 7 nM
Canine TRPM8; [3]
  % Inh @ 0.2 (μM): 100%

## N-(3-Methyl-benzo[b]thiophen-2-yl)-N-(4-fluoro-3-trifluoromethyl-benzyl)-4-thiomethyl-pyridin-3-yl-sulfonamide [Compound 378]
Canine TRPM8; [2]
  IC50: 97 nM
Canine TRPM8; [3]
  % Inh @ 0.2 (μM): 85%

## N-(3-Methyl-benzo[b]thiophen-2-yl)-N-(5,5,5-trifluoro-pentyl)-4-(5-oxo-4,5-dihydro-[1,2,4]oxadiazol-3-yl)-pyrid-3-ylsulfonamide [Compound 809]
Canine TRPM8; [6]
  % Inh @ 0.2 (μM): 103%
Canine TRPM8; [7]
  IC50: 6.9 nM

## N-(3-Methyl-benzo[b]thiophen-2-yl)-N-(5,5,5-trifluoro-pentyl)-4-thiomorpholin-4-yl-benzenesulfonamide [Compound 749]
Canine TRPM8; [3]
  % Inh @ 0.2 (μM): 64%

## N-(3-Methyl-benzo[b]thiophen-2-yl)-N-(cyclopropyl-ethyl)-4-morpholino-3-pyridyl-sulfonamide [Compound 798]
Canine TRPM8; [6]
  % Inh @ 0.2 (μM): 102%
Canine TRPM8; [7]
  IC50: 35.9 nM

## N-(Benzo[b]thiophen-2-yl)-N-(3,3,3-trifluoro-propyl)-4-(5-oxo-4,5-dihydro-[1,2,4]oxadiazol-3-yl)-benzenesulfonamide [Compound 597]
Canine TRPM8; [3]
  % Inh @ 0.2 (μM): 25%
